Data as given in patent publication US20260071150A1, “MICROBIAL ENHANCED COMPOSITIONS WHICH OVERCOME ANTAGONISTIC SURFACTANT INCOMPATIBILITY” (Stepan Company, priority 2023, published 2026).
Where two headings read alike, the source gives them in different places.

Experiments:
Bacillus spore blend = test: diluted concentrate EVOO haze test; type: cell-based
Description: Concentrates of two test formulations were prepared comprising the alkyl ether sulfate surfactant at 7.5 wt % actives, a Bacillus spore blend at 10.0 wt % (5×10^9 CFU/g), a mixture of 0.75 wt % potassium chloride and 0.75 wt % magnesium nitrate, and water to total 100%. Castor oil 36EO alkoxylate (TOXIMUL® 8240) (100% active) in an amount of 1.5 wt % was added to one of the test formulations. Two comparative concentrate compositions were also prepared. One comparative composition comprised the same amount of surfactant and spores but no additive or TOXIMUL® 8240, and the other comparative composition comprised the same amount of surfactant, spores, and TOXIMUL® 8240, but no additive. A total of 20 g of each concentrate composition was prepared.
For the test, each concentrate composition was diluted to 2.0 wt % (1×10^8 CFU/g) in a 4 oz glass jar, with 1 wt % 33 g/L Nutrient (30 g/L Tryptic Soy Broth+3 g/L Yeast Extract), 0.2 wt % Extra Virgin Olive Oil (EVOO), and water to total 50.0 g total weight. The jars were mixed on the orbital shaker for 15-30 minutes and initially photographed, and then mixed on the orbital shaker for 7 days and re-photographed.
Concentrates of the four test formulations were prepared comprising the calcium alkyl benzene sulfonate surfactant at 7.5 wt % actives, a Bacillus spore blend at 10.0 wt % (5×10^9 CFU/g), 1.5 wt % of the respective additive mixture, and water to total 100%. Each concentrate was 20 g total weight. Two control concentrates were also prepared. The positive control concentrate contained 10 wt % of the Bacillus spore blend and water, and the negative control concentrate contained 10 wt % of the Bacillus spore blend, 7.5 wt % surfactant actives, and water.

[1] = tested on: Bacillus species mix in spore form; test: un-dyed EVOO test, visual haze; details: for biological activity (haze), magnesium salt in the additive: 0.2 wt % rhamnolipids, 0.03 wt % L-alanine, 0.03 wt % potassium nitrate, 0.14 wt % magnesium salt; for biological activity (haze), low foam alkoxylate with additives: 1.0 wt % TOXIMUL 8240, 0.09 wt % L-alanine
Description: Comparative compositions were also prepared comprising the surfactant and bacterial spores, but no additive. Control compositions contained the bacterial spores, with and without additives, but no surfactant. All test, comparative and control compositions contained 2 wt % of 3.3 g/L Nutrient Mix. The pH was adjusted to pH of 7 if needed, using L-lactic acid or dilute NaOH. The compositions were photographed initially, then re-photographed after 4 and 5-7 days of orbital-mixer shaking at setting “5”, and initial and aged compositions were compared visually to determine differences.

[2] = tested on: beneficial microorganisms; test: compatibility of surfactants and builders with beneficial microorganisms; type: cell-based
Description: The compositions of the present technology comprise at least one surfactant that is incompatible with a beneficial microorganism. Incompatibility between a surfactant and a beneficial microorganism has been investigated in various ways, such as a standard Zone of Inhibition test, a standard agar plating test, or a standard resazurin (7-hydroxy-10-oxidophenoxazin-10-ium-3-one, sodium) (a blue fluorogenic dye) compatibility assay. In a Zone of Inhibition test, microorganisms are grown, cultured, diluted down to target levels, and then applied to a Petri dish containing agar nutrients. Test samples containing the surfactant of interest are diluted and loaded into an agar well created within the agar nutrient. The plates are incubated and microorganism growth is allowed to develop. […] This halo is referred to as the zone of inhibition. The larger the zone, the bigger the effect of inhibition. Major suitability limitations for non-antibiotics test samples for this test method are inherent large dilution of active, agar diffusion challenges, and nutrient media incompatibilities (neutralization, precipitation, etc). Although this method has been used in the medical field for antibiotics very successfully for decades, it has low suitability when testing non-antibiotic samples. In a standard agar plating test, test samples containing the surfactant of interest and microorganisms are exposed, diluted several orders of magnitude, and plated onto a nutritive agar that is incubated. After an incubation period appropriate for the species, the microorganism growth pattern is evaluated against appropriate controls. […] The test samples are incubated and then inspected for colorometric and fluorescence change. Test samples that are blue and have low fluorescence indicate no biological activity and incompatibility between the surfactant and the microorganism. Test samples that are pink and have high fluorescence indicate biological activity and compatibility of the surfactant with the microorganism. […]

[3] = tested on: Bacillus species mix in spore form; test: dyed extra-virgin olive oil (EVOO) digestion test with Stat-Ease 360 optimization; type: cell-based
Description: Because EVOO is a food source for vegetative cells, lightly-dyed EVOO added to a test sample containing bacterial spores can be an indicator of biological activity. […] Each test composition also included 0.20 g of 33 g/L Nutrient Mix (30 g/L Tryptic Soy Broth BD211825 and 3 g/L Yeast Extract BD212750 at pH 7.1-7.4). The test composition is mixed, then stored at 37° C. for 2-3 days to condition the spores. […] The initial oil drop is digitally photographed, and re-photographed after 4 days of gentle swirling on an orbital shaker at a setting of 1-2 on a scale of 0-10. Oil drop sizes are determined by transferring the photographed images to a computer and measuring the major diameter of each oil drop using a Tracker.jar line profile analysis (https://physlets.org/tracker/) to determine the length of the diameter in units of pixels. Oil drop sizes of initial and digested test samples are compared. […] An increase in measured drop diameter is interpreted as a change in surface tension due to the surfactant, combined with no or minimal EVOO digestion by the bacteria.
Stat-Ease 360 software was used to generate each design of experiment sample group, model the test results from the resulting data, and generate statistics for the optimal models. The models were then used to generate an optimization plot using Stat-Ease 360's Numerical Optimization function. The optimization includes a contour plot of “desirability” of component levels for the defined design space. These plots visually represent the complex relationships between the surfactant and additive components and show where desired performance is high and where it is low or zero.

[4] = physical stability (spore dispersion) of test compositions; type: physicochemical
Description: The alpha sulfonated alkyl ester test compositions from Example 3 were used for this stability assessment because, unexpectedly, the spores in some of the test compositions remained fully dispersed in the compositions after sitting for 1 week, even though the test compositions were at use dilution and water thin. Physical stability of the test compositions was assessed by photographing the test compositions in the parent sample jars (from which the Example 3 samples were taken), looking down on the sample jars, and quantifying the degree of precipitation via Tracker.jar image analysis.

[5] = concentrate 7.5 wt % surfactant actives diluted to 2.0 wt %
[6] = surfactant 0.2 wt % active, 0.09 wt % potassium nitrate, 0.02 wt % magnesium chloride hexahydrate, 7 days
[7] = alkyl sarcosinate MAPROSYL 30-B, FIG. 3
[8] = alpha-sulfonated alkyl ester ALPHA-STEP PC-48, additives with glucose, FIG. 5
[9] = alpha-sulfonated alkyl ester ALPHA-STEP PC-48, additives without glucose, FIG. 4

Molecule: calcium alkyl benzene sulfonate
- haze after 7 days, equal amounts of the additive components (Bacillus spore blend; 7.5 wt % surfactant actives, 0.5 wt % of each of L-alanine, Mg(NO3)2 and KCl, diluted to 2.0 wt %): some increase in haze
- haze after 7 days, L-alanine as the majority additive component (Bacillus spore blend; 7.5 wt % surfactant actives, 1.0 wt % L-Alanine + 0.25 wt % each of KCl and Mg(NO3)2, diluted to 2.0 wt %): some increase in haze
- haze after 7 days, Mg(NO3)2 as the majority additive component (Bacillus spore blend; 7.5 wt % surfactant actives, 1.0 wt % Mg(NO3)2 and 0.25 wt % each of L-alanine and KCl, diluted to 2.0 wt %): some increase in haze
- haziness after 7 days, surfactant without additive (negative control) (Bacillus spore blend; [5]): reduced haziness

Molecule: sodium laureth sulfate [alkyl ether sulfate]
- haze after 7 days, 1.5 wt % TOXIMUL 8240, no additive (Bacillus spore blend; [5]): lack of haze
- haze after 7 days, no additive, no TOXIMUL 8240 (Bacillus spore blend; [5]): lack of haze
- haze after 7 days, additive and TOXIMUL 8240 (Bacillus spore blend; concentrate 7.5 wt % surfactant actives, 0.75 wt % potassium chloride, 0.75 wt % magnesium nitrate, 1.5 wt % TOXIMUL 8240, diluted to 2.0 wt %): increase in haze
- haze after 7 days, additive, no TOXIMUL 8240 (Bacillus spore blend; concentrate 7.5 wt % surfactant actives, 0.75 wt % potassium chloride, 0.75 wt % magnesium nitrate, diluted to 2.0 wt %): lack of haze

Molecule: O=S(=O)([O-])[O-].[Mg+2] [MgSO4, magnesium sulfate]
- biological activity (haze), magnesium salt in the additive ([1]; 7 days): restore biological activity

Molecule: C12-C14 monoethanolamide-7EO-4PO [C42 MEA Amide-7EO-4PO]
- biological activity (haze), low foam alkoxylate with additives [1, 6]: increased biological activity

Molecule: C=CCCCCCCCC(=O)N(C)C [STEPOSOL MET-10U]
- compatibility with beneficial microorganisms [2]: compatible

Molecule: cocoamidopropyl hydroxysultaine [AMPHOSOL® CS-50]
- biological activity (haze) of bacterial spores, surfactant with additives ([1]; surfactant 0.2 wt % active, 0.09 wt % L-alanine, 0.09 wt % potassium nitrate, 0.02 wt % magnesium chloride hexahydrate, 7 days): shows haze, indicative of biological activity
- biological activity (haze) of bacterial spores, surfactant without additives ([1]; surfactant 0.2 wt % active, no additive, 1×10^7 CFU/g, 7 days orbital shaking): inhibits biological activity

Molecule: C[C@H](N)C(=O)O [L-alanine]
- desirability (optimization contour plot of EVOO digestion) [3, 7]: high desirability
- desirability (optimization contour plot of EVOO digestion) [3, 8]: low to zero desirability
- desirability (optimization contour plot of EVOO digestion) [3, 9]: high desirability
- desirability (optimization contour plot of EVOO digestion) ([3]; rhamnolipid surfactant, additives without glucose, FIG. 1): high desirability
- desirability (contour plot combining digestion and physical stability) [4]: higher desirability

Molecule: O=[N+]([O-])[O-].O=[N+]([O-])[O-].[Mg+2] [Mg(NO3)2, magnesium nitrate]
- biological activity (haze), magnesium salt in the additive ([1]; 7 days): restore biological activity

Molecule: O=C([O-])[C@H](O)[C@@H](O)[C@H](O)[C@H](O)CO.[Na+] [sodium gluconate]
- compatibility with beneficial microorganisms [2]: compatible

Molecule: O=C([O-])CC(O)(CC(=O)[O-])C(=O)O.[Mg+2] [Mg(Citrate) dibasic]
- biological activity (haze), magnesium salt in the additive ([1]; 7 days): restore biological activity

Molecule: O.O.O=C([O-])CC(O)(CC(=O)[O-])C(=O)[O-].[Na+].[Na+].[Na+] [sodium citrate dihydrate]
- compatibility with beneficial microorganisms [2]: compatible

Molecule: isodecyl-1PO-8EO [DA-1PO-8EO]
- biological activity (haze), low foam alkoxylate with additives [1, 6]: increased biological activity
- biological activity (haze), low foam alkoxylate without additives ([1]; surfactant 0.2 wt % active, 1.0 wt % TOXIMUL 8240, no additive, 7 days): the most sign of inhibition

Molecule: O=[N+]([O-])[O-].[K+] [KNO3, potassium nitrate]
- desirability (optimization contour plot of EVOO digestion) [3, 7]: high desirability
- desirability (optimization contour plot of EVOO digestion) [3, 8]: high desirability
- desirability (optimization contour plot of EVOO digestion) [3, 9]: high desirability
- desirability (contour plot combining digestion and physical stability) ([4]; alpha sulfonated alkyl ester test compositions of Example 3, FIG. 10): higher desirability
